Results as given in US6037341A, “Carbapenem derivatives” (Eisai Co., Ltd., priority 1994, dated 2000).
Values after ≈ are worked out from the molar mass of the structure shown.

Tests used:
Assay type in all cases: cell-based
S. aureus E31295 = test: MIC, S. aureus E31295; conditions: Staphylococcus aureus
E. coli CS109 = test: MIC, E. coli CS109; conditions: Escherichia coli
H. influenzae IID1638 = test: MIC, H. influenzae IID1638; conditions: Haemophilus influenzae
P. aeruginosa E03763 = test: MIC, P. aeruginosa E03763; conditions: Pseudomonas aeruginosa
P. aeruginosa NCTC10490 = test: MIC, P. aeruginosa NCTC10490; conditions: Pseudomonas aeruginosa
P. aeruginosa PA01 = test: MIC, P. aeruginosa PA01; conditions: Pseudomonas aeruginosa
[1] = test system: P. aeruginosa E03441/SKR2-14; test: MIC, P. aeruginosa E03441/SKR2-14; conditions: Pseudomonas aeruginosa, E03441/SKR214
[2] = test system: P. aeruginosa E03441/SKR2/I-2; test: MIC, P. aeruginosa E03441/SKR2/I-2; conditions: Pseudomonas aeruginosa
P. aeruginosa E03441/WT = test: MIC, P. aeruginosa E03441/WT; conditions: Pseudomonas aeruginosa
[3] = test system: P. aeruginosa E03441/SKR2; test: MIC, P. aeruginosa E03441/SKR2; conditions: Pseudomonas aeruginosa
P. aeruginosa E03441/R24 = test: MIC, P. aeruginosa E03441/R24; conditions: Pseudomonas aeruginosa
P. aeruginosa E03402 = test: MIC, P. aeruginosa E03402; conditions: Pseudomonas aeruginosa

**Q.** How did the MIC (S. aureus E31295) turn out when C[C@@H](O)[C@H]1C(=O)N2C(C(=O)O)=C(S[C@@H]3CN[C@H](C(O)C4CCNC4)C3)[C@H](C)[C@H]12 (stereo partly drawn) was run?
**A.** Its MIC is 0.1 µg/mL (≈ 0.243 µM).

**Q.** What about the MIC (E. coli CS109) of the same molecule?
**A.** The MIC was 0.05 µg/mL (≈ 0.121 µM).

**Q.** What about the MIC (H. influenzae IID1638) of the same molecule?
**A.** The MIC was 0.2 µg/mL (≈ 0.486 µM).

**Q.** What about the MIC (P. aeruginosa E03763) of the same molecule?
**A.** The MIC was 0.8 µg/mL (≈ 1.94 µM).

**Q.** And the MIC (P. aeruginosa NCTC10490)?
**A.** Its MIC is 0.1 µg/mL (≈ 0.243 µM).

**Q.** And the MIC (P. aeruginosa PA01)?
**A.** Its MIC is 0.2 µg/mL (≈ 0.486 µM).

**Q.** What about the MIC [1] of the same molecule?
**A.** Its MIC is 0.1 µg/mL (≈ 0.243 µM).

**Q.** What about the MIC [2] of the same molecule?
**A.** Its MIC is 0.4 µg/mL (≈ 0.972 µM).

**Q.** And the MIC (P. aeruginosa E03441/WT)?
**A.** The MIC was 0.2 µg/mL (≈ 0.486 µM).

**Q.** What about the MIC [3] of the same molecule?
**A.** The MIC was 0.2 µg/mL (≈ 0.486 µM).

**Q.** What about the MIC (P. aeruginosa E03441/R24) of the same molecule?
**A.** The MIC was 3.13 µg/mL (≈ 7.61 µM).

**Q.** And the MIC (P. aeruginosa E03402)?
**A.** Its MIC is 0.1 µg/mL (≈ 0.243 µM).
